ChEMBL document CHEMBL1201862, “PubChem BioAssay data set” (2004)
The source made the active and inactive calls.

Assays:
A-375 = assay: MITF: Counter assay: A375 proliferation Measured in Cell-Based System Using Plate Reader - 2084-03_Inhibitor_Dose_DryPowder_Activity. [Related pubchem assays (depositor defined):AID488944]; type: functional; settings: Homo sapiens
[1] = biological target: T1, Histone-lysine N-methyltransferase NSD2 (Homo sapiens, UniProt O96028); type: biochemical
T1 sequence (O96028 whole entry): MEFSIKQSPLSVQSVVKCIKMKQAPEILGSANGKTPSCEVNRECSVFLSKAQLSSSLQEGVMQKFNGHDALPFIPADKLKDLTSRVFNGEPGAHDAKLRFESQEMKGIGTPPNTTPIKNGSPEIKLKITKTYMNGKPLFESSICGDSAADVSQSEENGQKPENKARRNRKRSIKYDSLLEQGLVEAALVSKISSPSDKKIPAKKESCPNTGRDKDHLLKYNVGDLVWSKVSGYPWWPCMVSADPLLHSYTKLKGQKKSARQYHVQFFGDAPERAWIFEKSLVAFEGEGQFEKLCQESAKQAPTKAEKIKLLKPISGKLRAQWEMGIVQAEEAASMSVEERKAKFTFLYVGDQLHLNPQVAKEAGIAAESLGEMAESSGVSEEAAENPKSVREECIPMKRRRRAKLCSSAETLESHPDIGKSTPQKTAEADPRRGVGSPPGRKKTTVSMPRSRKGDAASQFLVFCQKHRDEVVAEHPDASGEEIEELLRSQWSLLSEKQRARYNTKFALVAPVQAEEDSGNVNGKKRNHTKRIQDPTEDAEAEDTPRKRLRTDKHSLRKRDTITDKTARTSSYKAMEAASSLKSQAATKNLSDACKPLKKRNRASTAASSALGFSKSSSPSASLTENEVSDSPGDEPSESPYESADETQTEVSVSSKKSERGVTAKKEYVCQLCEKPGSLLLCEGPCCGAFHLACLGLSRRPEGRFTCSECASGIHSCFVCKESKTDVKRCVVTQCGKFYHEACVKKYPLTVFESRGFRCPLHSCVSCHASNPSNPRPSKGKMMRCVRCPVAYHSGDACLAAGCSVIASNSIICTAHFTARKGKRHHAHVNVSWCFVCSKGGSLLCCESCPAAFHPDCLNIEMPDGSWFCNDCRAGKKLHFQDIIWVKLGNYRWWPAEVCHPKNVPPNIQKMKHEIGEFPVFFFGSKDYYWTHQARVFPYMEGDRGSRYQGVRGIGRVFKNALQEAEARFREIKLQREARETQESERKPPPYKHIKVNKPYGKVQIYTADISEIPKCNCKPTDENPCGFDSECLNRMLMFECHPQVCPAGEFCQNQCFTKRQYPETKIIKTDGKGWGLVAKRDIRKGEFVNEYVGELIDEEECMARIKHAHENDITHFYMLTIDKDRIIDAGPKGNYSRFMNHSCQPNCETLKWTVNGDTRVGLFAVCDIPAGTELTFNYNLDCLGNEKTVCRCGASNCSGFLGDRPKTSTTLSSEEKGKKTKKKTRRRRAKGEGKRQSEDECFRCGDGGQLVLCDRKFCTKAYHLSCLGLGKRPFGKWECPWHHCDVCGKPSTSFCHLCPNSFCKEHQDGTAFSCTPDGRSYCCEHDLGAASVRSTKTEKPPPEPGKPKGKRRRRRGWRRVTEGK

[2] = microbe, parasite or virus in culture; type: functional; settings: Mycobacterium tuberculosis
[3] = biological target: T2, Microphthalmia-associated transcription factor (Homo sapiens, UniProt O75030); assay: TRPM1 promoter luciferase signal decrease, dose response, MITF inhibitor project, cell-based, SK-MEL-5, cherry-picked, set 3 (AID 493073); type: functional
T2 sequence (O75030 whole entry): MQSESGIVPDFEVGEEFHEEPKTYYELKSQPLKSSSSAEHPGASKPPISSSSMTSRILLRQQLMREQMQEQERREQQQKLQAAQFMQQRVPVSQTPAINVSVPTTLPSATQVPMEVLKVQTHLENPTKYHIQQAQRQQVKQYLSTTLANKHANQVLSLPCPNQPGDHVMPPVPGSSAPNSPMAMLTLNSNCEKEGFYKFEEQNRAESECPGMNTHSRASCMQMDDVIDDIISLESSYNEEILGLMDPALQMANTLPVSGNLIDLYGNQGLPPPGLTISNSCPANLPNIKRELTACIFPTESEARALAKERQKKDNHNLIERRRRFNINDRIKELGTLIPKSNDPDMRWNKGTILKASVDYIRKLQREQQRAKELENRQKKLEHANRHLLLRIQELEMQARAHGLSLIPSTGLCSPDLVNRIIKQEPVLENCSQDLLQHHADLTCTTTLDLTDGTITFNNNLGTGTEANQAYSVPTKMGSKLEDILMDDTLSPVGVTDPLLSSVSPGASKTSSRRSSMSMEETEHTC

Procathepsin L = Procathepsin L (Homo sapiens, UniProt P07711); assay: cathepsin L inhibitors, dose response, counter-screen for M1/M17 aminopeptidase inhibitor project, biochemical, QFRET, 1536-well (AID 2214)
Leucine aminopeptidase = biological target: T3, Leucine aminopeptidase (Plasmodium falciparum 3D7, UniProt Q8IL11); assay: P. falciparum M17LAP inhibitors, primary screen, biochemical, fluorogenic H-Leu-NHMec substrate, 1536-well (AID 1619); type: functional
T3 sequence (Q8IL11 whole entry): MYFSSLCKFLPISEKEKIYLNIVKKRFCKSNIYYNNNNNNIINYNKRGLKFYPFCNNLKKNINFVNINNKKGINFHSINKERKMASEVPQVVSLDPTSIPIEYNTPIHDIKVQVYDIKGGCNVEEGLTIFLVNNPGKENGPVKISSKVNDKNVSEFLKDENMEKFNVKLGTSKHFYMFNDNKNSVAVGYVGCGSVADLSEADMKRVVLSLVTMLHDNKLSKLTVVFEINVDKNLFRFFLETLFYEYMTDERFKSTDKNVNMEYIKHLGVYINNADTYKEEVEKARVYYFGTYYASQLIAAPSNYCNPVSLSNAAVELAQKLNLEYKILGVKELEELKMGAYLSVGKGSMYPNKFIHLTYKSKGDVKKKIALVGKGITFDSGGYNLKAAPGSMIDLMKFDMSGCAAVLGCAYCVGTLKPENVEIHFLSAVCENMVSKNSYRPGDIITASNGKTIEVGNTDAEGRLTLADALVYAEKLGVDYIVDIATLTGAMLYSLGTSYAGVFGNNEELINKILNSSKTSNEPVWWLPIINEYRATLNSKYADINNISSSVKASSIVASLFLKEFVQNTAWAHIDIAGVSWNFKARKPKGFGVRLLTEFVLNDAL

Aspartyl aminopeptidase = Aspartyl aminopeptidase (Plasmodium falciparum 3D7, UniProt Q8I2J3); assay: Counterscreen for inhibitors of M1 and M17 aminopeptidases: QFRET-based biochemical high throughput dose response assay for inhibitors of the Plasmodium falciparum M18 Aspartyl Aminopeptidase (PFM18AAP). [Related PubChem assays: 1619 (Screening assay (M17LAP inhibitors).), 1445 (Screening assay (M1AAP inhibitors).)]
Escherichia coli = assay: microbe, parasite or virus in culture
HEK293 [4] = assay: cytotoxicity in HEK293T NF-kB-Luc cells, SAR follow-up, cytotoxicity control for NF-kB activator project, cell-based, resazurin fluorescence (AID 493251); type: functional; settings: Homo sapiens
HEK293 [5] = assay: SAR Analysis of small molecule inhibitors of T-cell specific antigen receptor-induced NF-kB activation in a HEK-293T cell line using a luminescence assay - Set 2. [Related pubchem assays (depositor defined):AID435003, AID435012, AID489026]; type: functional, cell-based; settings: Homo sapiens
Jurkat = assay: SAR Analysis of small molecule inhibitors of T-cell specific antigen receptor-induced NF-kB activation in a Jurkat cell line using a luminescence assay - Set 2. [Related pubchem assays (depositor defined):AID435003, AID435012, AID465]; type: functional, cell-based; settings: Homo sapiens

Chain of Aspartyl aminopeptidase (Q8I2J3 whole entry): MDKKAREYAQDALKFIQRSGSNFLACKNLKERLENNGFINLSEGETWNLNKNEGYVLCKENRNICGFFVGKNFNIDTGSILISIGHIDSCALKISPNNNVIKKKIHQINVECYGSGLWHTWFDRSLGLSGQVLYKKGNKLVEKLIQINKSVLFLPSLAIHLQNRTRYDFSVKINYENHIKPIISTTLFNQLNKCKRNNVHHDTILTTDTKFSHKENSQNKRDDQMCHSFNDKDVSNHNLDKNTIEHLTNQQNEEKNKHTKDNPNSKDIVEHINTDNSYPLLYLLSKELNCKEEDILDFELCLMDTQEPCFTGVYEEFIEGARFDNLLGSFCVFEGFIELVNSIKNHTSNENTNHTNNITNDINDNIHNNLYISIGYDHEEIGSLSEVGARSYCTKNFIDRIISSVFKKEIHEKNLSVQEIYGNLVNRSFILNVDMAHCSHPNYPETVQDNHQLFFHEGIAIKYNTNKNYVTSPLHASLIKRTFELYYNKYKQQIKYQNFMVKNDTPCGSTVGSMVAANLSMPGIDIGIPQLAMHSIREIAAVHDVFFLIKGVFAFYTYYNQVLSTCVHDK
Chain of Procathepsin L (P07711 whole entry): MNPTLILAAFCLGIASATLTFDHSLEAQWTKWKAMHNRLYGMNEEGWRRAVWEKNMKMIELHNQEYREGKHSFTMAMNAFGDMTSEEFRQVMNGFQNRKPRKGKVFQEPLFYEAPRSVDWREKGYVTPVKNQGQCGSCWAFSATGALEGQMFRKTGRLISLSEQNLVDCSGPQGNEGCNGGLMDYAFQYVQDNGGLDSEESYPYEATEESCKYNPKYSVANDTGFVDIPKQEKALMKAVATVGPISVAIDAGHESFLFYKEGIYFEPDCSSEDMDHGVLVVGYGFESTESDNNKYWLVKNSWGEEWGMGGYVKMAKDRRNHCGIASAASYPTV

CC1C/C(=C\c2cccnc2)C(=O)/C(=C/c2cccnc2)C1 (stereo unspecified)
AC50 (A-375): 21.5 µM (active) | AC50 [1]: 19 µM (active) | CC50 [2]: 15.3 µM (active) | AC50 [3]: 2.66 µM (active)

COc1ccc2nc(SCC(=O)Nc3cc(OC)c(OC)cc3C(=O)O)c(C)cc2c1
IC50 (Procathepsin L): > 59.6 µM (not active) | IC50 (Leucine aminopeptidase): < 1 µM (active) | IC50 (Aspartyl aminopeptidase): > 73.5 µM (not active) | AC50 (Escherichia coli): 27.6 µM (active)

CCOc1ccc(-c2nc(CS(=O)(=O)CC(=O)NCc3ccc(F)cc3)c(C)o2)cc1
IC50 (HEK293 [4]): > 80 µM (inactive) | IC50 (HEK293 [5]): > 80 µM (inactive) | IC50 (Jurkat): > 79 µM (inactive)
